The text below walks through data of patent publication US8026255B2, “Substituted piperidines as somatostatin receptor subtype 5 (SSTR5) antagonists” (Hoffman-La Roche Inc., priority 2006, dated 2011).

T1 sequence (P35346 whole entry): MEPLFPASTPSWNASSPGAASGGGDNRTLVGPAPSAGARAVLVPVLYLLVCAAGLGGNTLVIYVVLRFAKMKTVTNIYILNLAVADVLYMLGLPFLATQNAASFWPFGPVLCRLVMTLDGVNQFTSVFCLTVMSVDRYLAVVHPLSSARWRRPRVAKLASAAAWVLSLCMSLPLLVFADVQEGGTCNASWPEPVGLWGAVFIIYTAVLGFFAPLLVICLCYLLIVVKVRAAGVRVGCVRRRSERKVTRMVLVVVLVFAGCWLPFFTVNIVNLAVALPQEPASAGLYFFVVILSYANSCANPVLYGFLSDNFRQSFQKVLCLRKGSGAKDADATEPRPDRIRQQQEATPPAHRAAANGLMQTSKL

This assay concerns the target T1, human subtype 5 somatostatin receptor (Homo sapiens, UniProt P35346).
T1 construct: host or cells: CHO cells, stably transfected; membranes prepared from them
Kind of assay: SSTR5 radioligand binding assay (membranes of transfected CHO cells, 125I-labeled 11-Tyr somatostatin-14 tracer). Particulars: CHO cell membranes, Ki calculated from IC50 by Cheng-Prussoff equation. The procedure: A CHO cell line stably transfected with a plasmid encoding the human subtype 5 somatostatin receptor (GenBank accession number D16827) was obtained from Euroscreen. Cells were cultured and used for binding and functional assays.
Membranes of these cells were prepared by sonication in the presence of protease inhibitors and subsequent fractionating centrifugation. The protein concentration in the membrane preparation was determined using a commercial kit (BCA kit, Pierce, USA). Membranes were stored at −80° C. until use. After thawing, membranes were diluted in assay buffer (50 mM Tris-HCl at pH 7.4, 5 mM MgCl2 and 0.20% BSA) and subjected to dounce homogenization.
For binding studies, 0.1 mL membrane suspension, corresponding to app. 6×10^−15 mol receptor, was incubated for 1 h at room temperature with 0.05 nM ^125I-labeled tracer (11-Tyr somatostatin-14, Perkin-Elmer) and either test compounds in varying concentrations or, for the determination of non-specific binding, 0.001 mM non-labeled somatostatin-14. The incubation was stopped by filtration through GF/B glassfiber filters and washing with ice-cold wash buffer (50 mM Tris-HCl at pH 7.4). The bound radioactivity was measured after application of a scintillation cocktail (Microscint 40) and expressed as disintegrations per minute (dpm).
The receptor concentration was determined in a prior saturation experiment where a fixed, arbitrary amount of membranes was incubated with a concentration range of radio-labeled tracer. This allows estimating the total number of specific binding sites per amount of protein (i.e., Bmax), typically between 1 and 5 pmol/mg.
The concentration of the test compound required to result in half maximal inhibition of binding of the radio-labeled tracer (IC50) was estimated from a concentration-versus-dpm graph. The binding affinity (Ki) was calculated from the IC50 by applying the Cheng-Prussoff equation for single binding sites.
In the case of `CCOc1cc(CN2CCC(Nc3nc(C)c(-c4ccccc4)cc3C#N)CC2)ccc1OC` [Example 24, 2-[1-(3-ethoxy-4-methoxy-benzyl)-piperidin-4-ylamino]-6-methyl-5-phenyl-nicotinonitrile], the Ki (commonly a measure of affinity in units of concentration, obtained from inhibition or displacement) was 789 nM.

`CCOc1cc(CN2CCC(Nc3ccc4ccccc4n3)CC2)cc(OCC)c1F` [Example 103, [1-(3,5-diethoxy-4-fluoro-benzyl)-piperidin-4-yl]-quinolin-2-yl-amine]: the Ki is 7 nM.

Consider `CCOc1cc(CN2CCC(Nc3cnc(C(N)=O)cn3)CC2)ccc1Cl` [Example 205, 5-[1-(4-Chloro-3-ethoxy-benzyl)-piperidin-4-ylamino]-pyrazine-2-carboxylic acid amide], for which the Ki is 86 nM.
